In patent publication US12714684B2 (ALPARIS, S.A. DE C.V., priority 2019, dated 2026):
Converted amounts (≈) assume the structure as drawn.

What was measured:
[1] = tested on: carrageenan (CAR)-induced inflammation; assay: Carrageenan (CAR)-induced subplantar edema model, volume displacement by plethysmometer; format: in vivo, rats; details: for Time from which an anti-inflammatory effect is shown, carrageenan model: oral 100 mg/kg; for Effect in the time course, carrageenan model: oral 100 and 320 mg/kg
Procedure: The carrageenan (CAR)-induced subplantar edema model was used in the evaluation of the acute effect.
(§1) Preclinical studies were performed in rats with a chronic inflammation model using complete Freund's adjuvant (CFA) given intra-articularly (AIA), as well as an acute model induced by carrageenan (CAR) given in the subplantar region.
(§2) In these models, the inflammation induced by the complete Freund's adjuvant and carrageenan is determined by the volume displacement measured with a plethysmometer.

[2] = tested on: Complete Freund's Adjuvant (CFA)-induced inflammation; assay: Complete Freund's adjuvant (CFA)-induced inflammation model, volume displacement by plethysmometer; format: in vivo, Sprague-Dawley male rats
Procedure: as §1, §2

[3] = tested on: CAR-induced thermal hyperalgesia; assay: Thermal hyperalgesia induced by carrageenan; format: in vivo, rats; details: oral 100 mg/kg
[4] = Merck Index 15th ed.; cited from earlier work
[5] = Thermodynamic solubility study in water with 1% LSS; format: physicochemical
Procedure: It was performed by adding 2 g of the solid phase to LSS (sodium lauryl sulfate) medium, with stirring at 37.5° C., and taking aliquots at 3, 5, 10 and 30 minutes. Aliquots were filtered and measurements were made with UV-Vis spectroscopy at 420 nm.
We measured the solubility of the co-amorphous phases at a lower concentration of 0.05 g in 3.5 ml, for determining the effect of concentration on the aggregation phenomenon.

[6] = oral, 100 and 320 mg/kg, 1 h before

Compound: N=C(N)NCCC[C@H](N)C(=O)O [L-arginine]
- Time from which an anti-inflammatory effect is shown, carrageenan model [1]: only in the last measurement
- Effect in the time course, carrageenan model ([1]; first two hours): inclined to show a proinflammatory effect
- Effect in relation to the vehicle in the time course, CFA model ([2]; oral 100 and 320 mg/kg, between 2 and 4 hours): showed an inflammatory effect in relation to the vehicle
- Antihyperalgesic effect, carrageenan-induced thermal hyperalgesia [3]: the three treatments produce an antihyperalgesic effect

Compound: O=C(O)Cc1ccccc1Nc1c(Cl)cccc1Cl [diclofenac]
- Reversal of inflammation induced by carrageenan ([1]; oral, fixed dose 100 mg/kg): exhibited an anti-inflammatory effect
- Reversal of inflammation induced by complete Freund's adjuvant ([2]; oral, fixed dose 100 mg/kg): exhibited an anti-inflammatory effect

Compound: COc1cc(/C=C/C(=O)CC(=O)/C=C/c2ccc(O)c(OC)c2)ccc1O [curcumin, (1E,6E)-1,7-bis(4-hydroxy-3-methoxyphenyl)-1,6-heptadiene-3,5-dione]
- Time from which an anti-inflammatory effect is shown, carrageenan model [1]: only in the last measurement
- Effect with respect to the vehicle in the time course, carrageenan model ([1]; oral 320 mg/kg, at 1 and 2 hours): The same phenomenon is observed
- Effect in the time course, carrageenan model ([1]; at 6 hours): seem to reverse the inflammatory effect induced by carrageenan
- Reversal of the inflammatory effect induced by carrageenan (AUC) [1, 6]: unable to reverse the inflammatory effect
- Effect with respect to the vehicle in the time course, CFA model ([2]; oral 100 mg/kg, at 3 and 4 hours): shows an inflammatory effect with respect to the vehicle
- Effect with respect to the vehicle in the time course, CFA model ([2]; oral 320 mg/kg, between 2 and 6 hours): shows an inflammatory effect with respect to the vehicle
- Reversal of the inflammatory effect induced by complete Freund's adjuvant (AUC) [2, 6]: unable to reverse the inflammatory effect
- Solubility in solvents [4]: soluble in ethanol and in concentrated acetic acid
- solubility at 30 min ([5]; water with 1% sodium lauryl sulfate (LSS), aqueous with cosolvent or surfactant or cyclodextrin, thermodynamic from solid, high concentration sample, 37.5° C., water with 1% LSS, 30 min): 110 µg/mL (≈ 299 µM)
- Solubility of curcumin alone in water ([5]; water, could not be determined): almost insoluble in water
- Antihyperalgesic effect, carrageenan-induced thermal hyperalgesia [3]: the three treatments produce an antihyperalgesic effect
